Data on seven molecules can be found in publication PMC12662248 (ADMET & DMPK, 2025).

Data set [1] has as its system plateable dog hepatocytes. As to the kind of experiment: Metabolite identification in plateable dog hepatocytes. It counts as in vitro ADME. Particulars: 10 μM metoprolol, 72 hours. How it is done:
(§1) Cryopreserved rat, dog, monkey and human hepatocytes were thawed by immersing vials in a pre-warmed 37 °C water bath. The cell pellets were then transferred to thawing medium and centrifuged to isolate viable cells. Then, hepatocytes were diluted to 0.7 million cells mL^-1 and seeded into collagen-coated 48-well plates (0.2 mL per well) in duplicate. After 6 hours of attachment, the plating medium was replaced with incubation medium containing 1 % Matrigel™. […] Reactions were quenched at 72 hours with cold acetonitrile containing 0.1 % formic acid, and supernatants were dried under nitrogen gas. The residues were reconstituted in acetonitrile/water (1:9 volume ratio) with 0.1 % formic acid and analysed LC-HRMS. The M7 metabolite was isolated, purified, and concentrated via a mass spectrometry switching valve, followed by sample reconstitution, and subsequent analysis on LC-HRMS.
(§2) The maximum injection time was limited to 50 ms.
(§3) Hepatocyte viability data was expressed as mean±SD.

Data set [2] deals with T1, recombinant 2D6 enzymes (Homo sapiens, UniProt P10635). Particulars: 60 min, 1 μM.
T1 sequence (P10635 whole entry): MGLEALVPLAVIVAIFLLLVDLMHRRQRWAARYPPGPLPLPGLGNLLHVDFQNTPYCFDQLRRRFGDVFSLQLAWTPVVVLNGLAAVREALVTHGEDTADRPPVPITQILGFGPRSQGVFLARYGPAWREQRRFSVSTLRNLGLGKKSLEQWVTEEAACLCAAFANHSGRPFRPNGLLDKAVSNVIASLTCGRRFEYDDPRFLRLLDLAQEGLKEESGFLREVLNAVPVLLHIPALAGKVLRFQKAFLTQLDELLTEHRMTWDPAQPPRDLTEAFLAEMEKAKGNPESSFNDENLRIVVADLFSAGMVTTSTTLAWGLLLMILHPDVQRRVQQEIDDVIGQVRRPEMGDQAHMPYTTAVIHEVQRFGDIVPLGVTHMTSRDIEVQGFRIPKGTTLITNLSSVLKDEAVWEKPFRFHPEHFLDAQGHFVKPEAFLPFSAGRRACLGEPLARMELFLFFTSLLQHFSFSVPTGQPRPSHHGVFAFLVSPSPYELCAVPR
Experimental: (§5) Human recombinant cytochrome 2D6 enzymes were diluted to 50 pmol mL^-1 in 50 mM phosphate buffer. […] Reactions were initiated by adding NADPH (final concentration: 1 mM), and aliquots were collected at 60 min. Samples were quenched with cold acetonitrile containing 0.1 % formic acid, centrifuged (12,000g, 15 min, 4 °C), then supernatants were dried, reconstituted, centrifuged (12,000g, 15 min, 4 °C), and subjected to an analysis on LC-HRMS..
(§6) Qualitative LC-HRMS analysis was conducted using an Ultimate 3000 pump (ThermoFisher, Germany) and a Q-Exactive Plus spectrometer. The mobile phase A was distilled water containing 0.1 % formic acid and the mobile phase B was acetonitrile containing 0.1 % formic acid. The liquid chromatography (LC) gradient spanned 22 min: 0 to 1.0 minute at 5 % B; 1.0 to 6.0 min, 5 to 15 % B; 6.0 to 14.0 mi, 15 to 25 % B; 14.0 to 16.0 min, 25 to 90 % B; 16.0 to 18.0 min, 90 to 95 % B; 18.0 to 20.0 min, 95 to 5 % B; and 20.0 to 22.0 min at 5 % B (flow rate: 0.3 mL min^-1). MS parameters included: spray voltage: 3.8 kV, capillary temperature: 320 °C, heater temperatures: 350 °C, sheath gas: 2.76 MPa, auxiliary nitrogen pressures: 0.7 MPa and tube lens voltage: 10 eV. The full scan Q1 resolution was set to 70,000, and the automatic gain control (AGC) target value was set to 5×10^5 intensity. The maximum injection time was limited to 50 ms. The dd-MS^2 resolution was set at 17,500, with the AGC target set at 5×10^4. External calibration was performed, yielding a deviation of less than 5.0 ppm. Data was processed using Xcalibur 4.1.31.9 software (ThermoFisher, Germany; https://www.thermofisher.com/order/catalog/product/OPTON-30965).
(§7) LC-HRMS raw data was extracted with Xcalibur, and metabolites were identified using Compound Discoverer 3.0 (ThermoFisher, Germany; https://www.thermofisher.com/order/catalog/product/OPTON-31061) by comparing fragment patterns between parent compounds, metabolites, and standards.
Data set [3] has as its system plateable monkey hepatocytes. Put plainly: Metabolite identification in plateable monkey hepatocytes. It counts as in vitro ADME. To be noted: 10 μM metoprolol, 72 hours. How it is done:
as §1, §2, §3

Data set [4] deals with plateable rat hepatocytes. Put plainly: Metabolite identification in plateable rat hepatocytes. It counts as in vitro ADME. Particulars: 10 μM metoprolol, 72 hours. As for the experimental part: as §1, §2, §3
Data set [5] deals with plateable human hepatocytes. As to the kind of experiment: Metabolite identification in plateable human hepatocytes. It counts as in vitro ADME. To be noted: 10 μM metoprolol, 72 hours. How it is done: as §1, §2, §3
For data set [6], the target named is T1, recombinant 2D6 enzymes. Put plainly: Metabolite identification in recombinant cytochrome 2D6 enzymes. To be noted: human recombinant 2D6 enzymes, 1 μM metoprolol, 60 min.
Experimental: as §5, §6, §7
Data set [7] relates to plateable rat hepatocytes. Put plainly: Plateable hepatocytes cytotoxicity (CellTiter-Glo ATP assay), rat. To be noted: 48 hours; for cytotoxicity in rat hepatocytes (words): 0 to 500 μM. The format is cell-based. How it is done:
(§4) Cryopreserved plateable rat and human hepatocytes were thawed by immersing vials in a pre-warmed 37 °C water bath. The cell pellets were then transferred to thawing medium and centrifuged to isolate viable cells. […] Prior to the measurement, the cell culture plate was equilibrated to ambient temperature. Subsequently, 100 μL of CellTiter-Glo® reagent was dispensed into each well, followed by orbital shaking (5 min) to ensure complete cell lysis. After a 10-minute stabilization at room temperature, luminescence signals were quantified using an envision® multilabel plate reader.
(ATP-based viability assays read luminescence as a measure of living cells.)

Data set [8] deals with plateable human hepatocytes. To be noted: cited from earlier work.
Data set [9] relates to plateable human hepatocytes. Put plainly: Plateable hepatocytes cytotoxicity (CellTiter-Glo ATP assay), human. To be noted: 0 to 500 μM, 48 hours, regardless of ABT co-treatment. The format is cell-based. How it is done:
as §4

For data set [10], the system named is plateable human hepatocytes. As to the kind of experiment: Plateable hepatocytes stability (metoprolol depletion). The format is in vitro ADME. How it is done:
Cryopreserved human hepatocytes were thawed by immersing vials in a pre-warmed 37 °C water bath. The cell pellets were then transferred to thawing medium and centrifuged to isolate viable cells. […] Aliquots were collected at 0, 2, 4, 8, 24, 48 and 72 hours, and reactions were quenched with cold acetonitrile/methanol (1:1, v/v) containing labetalol (100 ng mL^-1). After centrifugation (12,000g, 15 min, 4 °C), supernatants were analysed via LC-30AD-API5500 (LC-MS/MS, SCIEX, USA) for semiquantitative assessment. […] Hepatocyte viability data was expressed as mean±SD.

SMILES strings stand for the structures. “Also recorded” adds a separate entry of the source. Read-outs that look alike come from different tables or passages of the source.

Consider `NCC(O)COc1ccc(CCO)cc1` (centres unmarked) [M3], for which the “Relative peak area, plateable hepatocytes, D” value in data set [1] came to 0.7%. Besides, on recombinant 2D6 enzymes [2], the “Relative peak area, 2D6, H” value worked out at 1.6%. In [3], the “Relative peak area, plateable hepatocytes, Mk” value (from here on “Relative peak area … Mk”) was determined as 0.1%.

Turning to `CC(C)NCC(O)COc1ccc(C(=O)O)cc1` (centres unmarked) [M9], the “Relative peak area, 2D6, H” value at recombinant 2D6 enzymes [2] stood at 1.7%. In addition, the “Relative peak area, plateable hepatocytes, R” value in data set [4] is 0.4%. Moreover, the “Relative peak area … Mk” value in data set [3] is given as 0.2%.

In the case of `COCC(O)c1ccc(OCC(O)CNC(C)C)cc1` (stereo not drawn) [M10, α-hydroxy-metoprolol], in [5], the “Relative peak area, plateable hepatocytes, H” value came to 2.7%. Also, the “Relative peak area, plateable hepatocytes, D” value in [1] stood at 9.4%. Moreover, the “Relative peak area, 2D6, H” value at recombinant 2D6 enzymes [2] worked out at 20.1%. The “Relative peak area, plateable hepatocytes, R” value in data set [4] stood at 24.4%. Moreover, the “Relative peak area … Mk” value in data set [3] is given as 5.6%.

`CC(C)NCC(O)COc1ccc(CCO)cc1` (centres unmarked) [M13, O-desmethyl-metoprolol]: the “Relative peak area, plateable hepatocytes, H” value in data set [5] is recorded as 6.0%. For the same molecule, in [1], the “Relative peak area, plateable hepatocytes, D” value was 20.5%. The “Relative peak area, 2D6, H” value at recombinant 2D6 enzymes [2] amounted to 22.8%. In addition, in [4], the “Relative peak area, plateable hepatocytes, R” value is given as 3.8%. Moreover, in data set [3], the “Relative peak area … Mk” value amounted to 0.1%.

For the molecule `CC(C)NCC(O)COc1ccc(CC(=O)O)cc1` (centres unmarked) [M17, metoprolol acid], in data set [5], the “Relative peak area, plateable hepatocytes, H” value is on record as 14.6%. The “Relative peak area, plateable hepatocytes, D” value in data set [1] worked out at 19.9%. The “Relative peak area, plateable hepatocytes, R” value in data set [4] is on record as 57.2%. Also, at recombinant 2D6 enzymes [6], the “Relative peak area, 2D6, H” value was 18.3%. Moreover, in data set [3], the “Relative peak area … Mk” value turned out to be 82.6%.

For the molecule `COCCc1ccc(OCC(O)CN)cc1` (centres unmarked) [M18], in [1], the “Relative peak area, plateable hepatocytes, D” value is given as 5.8%. The “Relative peak area, 2D6, H” value on recombinant 2D6 enzymes [2] was determined as 6.4%. In data set [4], the “Relative peak area, plateable hepatocytes, R” value was 0.1%.

Take `COCCc1ccc(OCC(O)CNC(C)C)cc1` (centres unmarked) [metoprolol, Metoprolol]: the “cytotoxicity in rat hepatocytes (words)” value in data set [7] (without ABT) is given as “weak cytotoxicity; also recorded: weak hepatotoxicity”; in data set [7] (without ABT, listed as Metoprolol) it was “cytotoxic only at a concentration of 500 μM”. The “effect of ABT pre-treatment on metoprolol cytotoxicity” value in [7] (rat hepatocytes, 500 μM metoprolol with 50 μM ABT) is “reversed the cytotoxic effect”. For the same molecule, the “reductions in cell viability” value in data set [7] (rat hepatocytes, 500 μM metoprolol, without ABT) is above 30%. Further, the in vivo clearance in data set [8] (correlating with plateable human hepatocyte clearance) is 0.084 L/h/kg. Moreover, in data set [8] (previously reported), the clearance in hepatocytes is recorded as 4.28 μL min^-1 per million cells. Also, the “clearance in plateable human hepatocytes” value in data set [8] (previously reported) was 2.2 ± 0.7 μL min^-1 per million cells. The “cytotoxicity in human hepatocytes (words)” value in data set [9] is listed as “No significant reduction in cell viability; also recorded: no significant hepatotoxicity”; in [9] (listed as Metoprolol), “no observable cytotoxicity”. Also, the “in vivo CLint” value in [10] (extrapolated from plateable human hepatocyte CLint) was 0.0954 ± 0.0186 L/h/kg. Moreover, in [10] (plateable human hepatocytes, 1 μM, 72-hour incubation), the “in vitro intrinsic clearance (CLint)” value is 0.56±0.12 μL min^-1 per million cells.
